{"source": "patent US3977944A", "about": "“Enzyme-kinetic determination of the concentration of a substrate” (Eppendorf Geratebau Netheler & Hinz GmbH, priority 1973, dated 1976)", "key": {"GlucDH": {"target": "GlucDH (Priestia megaterium, UniProt P07999)", "sequence (P07999 whole entry)": "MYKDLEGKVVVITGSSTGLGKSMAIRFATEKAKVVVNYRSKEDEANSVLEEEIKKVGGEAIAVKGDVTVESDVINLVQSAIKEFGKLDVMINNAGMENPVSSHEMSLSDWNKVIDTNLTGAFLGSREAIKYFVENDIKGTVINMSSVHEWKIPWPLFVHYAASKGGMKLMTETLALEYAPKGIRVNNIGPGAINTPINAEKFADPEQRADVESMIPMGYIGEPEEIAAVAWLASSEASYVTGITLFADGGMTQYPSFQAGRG", "assay": "Kinetic glucose determination with GlucDH, average inhibition (Table 3)", "assay_type": "biochemical", "excerpt": "(§1) The exclusion of the interference of foreign inhibitors that can be achieved by the invention is illustrated by the measurements obtained for two different enzymes and two different inhibitors each, which are listed in the following two tables."}, "glucose dehydrogenase [1]": {"target": "T1, glucose dehydrogenase (Priestia megaterium, UniProt P07999)", "T1 sequence (P07999 whole entry)": "as above", "assay": "Kinetic glucose determination with glucose-dehydrogenase, Example 4 (1.8 U enzyme)", "assay_type": "biochemical", "excerpt": "(§2) The following test mixture was used:\n0.12 mole phosphate buffer pH = 7.6\n40 millimoles sulfosalicylic acid\n0.86 millimole - 2.59 millimoles glucose\n1.8 U glucose-dehydrogenase"}, "glucose dehydrogenase [2]": {"target": "T1, glucose dehydrogenase", "assay": "Kinetic glucose determination with glucose-dehydrogenase, Example 5 (95 mU enzyme)", "assay_type": "biochemical", "excerpt": "as §2\n90 mmoles phosphate buffer pH = 7.6\n40 mmoles sulfosalicylic acid\n95 mU glucose dehydrogenase"}, "uricase [3]": {"target": "T2, uricase (Sus scrofa, UniProt P16164)", "T2 sequence (P16164 2-304 limits assumed)": "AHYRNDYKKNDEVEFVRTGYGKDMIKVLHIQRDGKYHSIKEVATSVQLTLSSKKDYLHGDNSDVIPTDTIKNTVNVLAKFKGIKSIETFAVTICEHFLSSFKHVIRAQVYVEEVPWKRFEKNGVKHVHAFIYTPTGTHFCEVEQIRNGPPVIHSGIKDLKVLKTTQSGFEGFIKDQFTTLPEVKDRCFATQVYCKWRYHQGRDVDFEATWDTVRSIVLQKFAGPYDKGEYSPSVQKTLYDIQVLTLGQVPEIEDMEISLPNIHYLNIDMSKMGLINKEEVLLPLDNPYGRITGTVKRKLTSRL", "assay": "Kinetic uric acid determination with uricase, average inhibition (Table 4)", "assay_type": "biochemical", "excerpt": "as §1"}, "uricase [4]": {"target": "T2, uricase", "assay": "Inhibition of Uricase, Example 6", "assay_type": "biochemical", "excerpt": "as §2\n96 mmoles borate buffer pH = 9.5\n114 - 7.6 μmoles uric acid"}, "[5]": {"target": "uricase (prepared from swine liver) (Sus scrofa, UniProt P16164)", "protocol": "Recording is started 20 seconds after initiation of the reaction: paper speed 2 cm/min, spread 20 cm for E=0-1. With an angle measuring means, the angle α formed with the time axis is measured at the beginning of each recording. The reciprocals of tan α are plotted as ordinates against the corresponding reciprocal uric acid concentrations (Lineweaver-Burk diagram). The calibration straight line is drawn through the points obtained with and without the addition of potassium thiocyanate.\nFor the determination of the apparent Michaelis constant, the reciprocals of the tangent α are plotted as ordinates, and the reciprocal molar substrate concentrations in the test mixture as abscissae. The apparent Michaelis constant is found as a negative reciprocal of the abscissae intersections of the straight lines of regression (insertion of suitable small values for 1/cS followed by graphic evaluation)."}, "glucose dehydrogenase [6]": {"target": "T1, glucose dehydrogenase", "details": "Lineweaver-Burk diagram, FIG. 1; 330 and 500 mmoles KSCN per liter of test solution", "protocol": "The reaction was started by the admixture of 20 μl of 200 mmoles/l NAD^+, and recording was begun 10 seconds later: paper feed 5 cm/min, spread 20 cm for E = 0 - 1.\nFor the determination of the angle α with the axis of time the virtually linear initial area of the recording was evaluated; for the determination of the type of inhibitor, the reciprocals of tangent α (identical with the initial rate, for practical purposes) were plotted as ordinates and the reciprocals of the millimolar glucose concentrations used in the test were plotted as abscissae (Lineweaver-Burk diagram).\n20 μl of specimen was incubated in the cell at 25°C with 500 μl of stabilized buffer-enzyme-inhibitor mixture and the reaction was started by the admixture of 20 μl NAD^+ (150 mg/ml H2 O). 20 seconds after the start of the reaction, recording was performed at a paper feed of 5 cm/min at Hg 366 nm, and the layer thickness 1.00 cm, and the angle α was determined 20 seconds after the start of the reaction in each case."}, "[7]": {"target": "uricase obtained from swine liver (Sus scrofa, UniProt P16164)", "details": "read-out: Michaelis constant of uricase, Tiffany et al., Anal. Chem. 45, 1716-23 (1973); cited from earlier work"}, "[8]": {"details": "0.31 mole KSCN, glucose [S] 0.86 mmoles"}, "[9]": {"details": "0.31 mole KSCN, glucose [S] 1.29 mmoles"}, "[10]": {"details": "0.31 mole KSCN, glucose [S] 1.72 mmoles"}, "[11]": {"details": "0.31 mole KSCN, glucose [S] 2.59 mmoles"}, "[12]": {"details": "38.5 mmoles KSCN, glucose [S] 0.86 mmoles"}, "[13]": {"details": "38.5 mmoles KSCN, glucose [S] 1.29 mmoles"}, "[14]": {"details": "38.5 mmoles KSCN, glucose [S] 1.72 mmoles"}, "[15]": {"details": "38.5 mmoles KSCN, glucose [S] 2.59 mmoles"}, "[16]": {"details": "38.5 mmoles KSCN, glucose [S] 3.45 mmoles"}, "[17]": {"details": "1.4 nmoles phloretin, glucose [S] 0.86 mmoles"}, "[18]": {"details": "1.4 nmoles phloretin, glucose [S] 1.29 mmoles"}, "[19]": {"details": "1.4 nmoles phloretin, glucose [S] 1.72 mmoles"}, "[20]": {"details": "1.4 nmoles phloretin, glucose [S] 2.59 mmoles"}, "[21]": {"details": "14 nmoles phloretin, glucose [S] 0.86 mmoles"}, "[22]": {"details": "14 nmoles phloretin, glucose [S] 1.29 mmoles"}, "[23]": {"details": "14 nmoles phloretin, glucose [S] 1.72 mmoles"}, "[24]": {"details": "14 nmoles phloretin, glucose [S] 2.59 mmoles"}, "[25]": {"details": "14 nmoles phloretin, glucose [S] 3.45 mmoles"}, "[26]": {"details": "0.02 mmole xanthine, [S] 7.6 μmole"}, "[27]": {"details": "0.02 mmole xanthine, [S] 38 μmole"}, "[28]": {"details": "0.02 mmole xanthine, [S] 114 μmole"}}, "data": [{"molecule": "N#CS", "note": "[KSCN, Potassium thiocyanate]", "values": [{"measurement": "Average inhibition in %", "setting": "GlucDH; KSCN 38.5 millimoles", "value": 17, "unit": "%"}, {"measurement": "Average inhibition in %", "setting": "GlucDH; KSCN 310 millimoles", "value": 78, "unit": "%"}, {"measurement": "% inh.", "setting": "glucose dehydrogenase [1]; [8]", "value": 85.5, "unit": "%"}, {"measurement": "ΔE/min", "setting": "glucose dehydrogenase [1]; [8]", "value": 4.5}, {"measurement": "% inh.", "setting": "glucose dehydrogenase [1]; [9]", "value": 80.3, "unit": "%"}, {"measurement": "ΔE/min", "setting": "glucose dehydrogenase [1]; [9]", "value": 8.0}, {"measurement": "% inh.", "setting": "glucose dehydrogenase [1]; [10]", "value": 80.6, "unit": "%"}, {"measurement": "ΔE/min", "setting": "glucose dehydrogenase [1]; [10]", "value": 10.5}, {"measurement": "% inh.", "setting": "glucose dehydrogenase [1]; [11]", "value": 77.5, "unit": "%"}, {"measurement": "ΔE/min", "setting": "glucose dehydrogenase [1]; [11]", "value": 17}, {"measurement": "% inh.", "setting": "glucose dehydrogenase [2]; [12]", "value": 17, "unit": "%"}, {"measurement": "ΔE/min", "setting": "glucose dehydrogenase [2]; [12]", "value": 28.0}, {"measurement": "% inh.", "setting": "glucose dehydrogenase [2]; [13]", "value": 18.8, "unit": "%"}, {"measurement": "ΔE/min", "setting": "glucose dehydrogenase [2]; [13]", "value": 40.3}, {"measurement": "% inh.", "setting": "glucose dehydrogenase [2]; [14]", "value": 21.69, "unit": "%"}, {"measurement": "ΔE/min", "setting": "glucose dehydrogenase [2]; [14]", "value": 49.7}, {"measurement": "% inh.", "setting": "glucose dehydrogenase [2]; [15]", "value": 8, "unit": "%"}, {"measurement": "ΔE/min", "setting": "glucose dehydrogenase [2]; [15]", "value": 72.3}, {"measurement": "% inh.", "setting": "glucose dehydrogenase [2]; [16]", "value": 17, "unit": "%"}, {"measurement": "ΔE/min", "setting": "glucose dehydrogenase [2]; [16]", "value": 90}, {"measurement": "Average inhibition in %", "setting": "uricase [3]; KSCN 10 millimoles", "value": 17, "unit": "%"}, {"measurement": "Average inhibition in %", "setting": "uricase [3]; KSCN 40 millimoles", "value": 41, "unit": "%"}, {"measurement": "Average inhibition in %", "setting": "uricase [3]; KSCN 500 millimoles", "value": 82, "unit": "%"}, {"measurement": "% inh.", "setting": "uricase [4]; 0.5 mole KSCN, [S] 7.6 μmole", "value": 86, "unit": "%"}, {"measurement": "ΔE/min", "setting": "uricase [4]; 0.5 mole KSCN, [S] 7.6 μmole", "value": 3.3}, {"measurement": "% inh.", "setting": "uricase [4]; 0.5 mole KSCN, [S] 38 μmole", "value": 81, "unit": "%"}, {"measurement": "ΔE/min", "setting": "uricase [4]; 0.5 mole KSCN, [S] 38 μmole", "value": 16.3}, {"measurement": "% inh.", "setting": "uricase [4]; 0.5 mole KSCN, [S] 114 μmole", "value": 73, "unit": "%"}, {"measurement": "ΔE/min", "setting": "uricase [4]; 0.5 mole KSCN, [S] 114 μmole", "value": 46}, {"measurement": "apparent Michaelis constant", "setting": "[5]; 687 mmoles per liter of test solution, uric acid as substrate, 25°C", "value": 1, "unit": "mmol/L"}, {"measurement": "type of inhibitor", "setting": "[5]; Lineweaver-Burk plot, same ordinate intersection", "value": "competitive inhibitor"}, {"measurement": "type of inhibitor", "setting": "glucose dehydrogenase [6]", "value": "competitive type of inhibitor"}]}, {"molecule": "O=C(CCc1ccc(O)cc1)c1c(O)cc(O)cc1O", "note": "[Phloretin, phloretin]", "values": [{"measurement": "Average inhibition in %", "setting": "GlucDH; Phloretin 1.4 micromoles", "value": 20, "unit": "%"}, {"measurement": "Average inhibition in %", "setting": "GlucDH; Phloretin 14 micromoles", "value": 76, "unit": "%"}, {"measurement": "% inh.", "setting": "glucose dehydrogenase [1]; [17]", "value": 22.8, "unit": "%"}, {"measurement": "ΔE/min", "setting": "glucose dehydrogenase [1]; [17]", "value": 24.0}, {"measurement": "% inh.", "setting": "glucose dehydrogenase [1]; [18]", "value": 26.0, "unit": "%"}, {"measurement": "ΔE/min", "setting": "glucose dehydrogenase [1]; [18]", "value": 30.0}, {"measurement": "% inh.", "setting": "glucose dehydrogenase [1]; [19]", "value": 15.8, "unit": "%"}, {"measurement": "ΔE/min", "setting": "glucose dehydrogenase [1]; [19]", "value": 45.5}, {"measurement": "% inh.", "setting": "glucose dehydrogenase [1]; [20]", "value": 17.1, "unit": "%"}, {"measurement": "ΔE/min", "setting": "glucose dehydrogenase [1]; [20]", "value": 62.5}, {"measurement": "% inh.", "setting": "glucose dehydrogenase [2]; [21]", "value": 74, "unit": "%"}, {"measurement": "ΔE/min", "setting": "glucose dehydrogenase [2]; [21]", "value": 8.7}, {"measurement": "% inh.", "setting": "glucose dehydrogenase [2]; [22]", "value": 77, "unit": "%"}, {"measurement": "ΔE/min", "setting": "glucose dehydrogenase [2]; [22]", "value": 11.3}, {"measurement": "% inh.", "setting": "glucose dehydrogenase [2]; [23]", "value": 78, "unit": "%"}, {"measurement": "ΔE/min", "setting": "glucose dehydrogenase [2]; [23]", "value": 14.0}, {"measurement": "% inh.", "setting": "glucose dehydrogenase [2]; [24]", "value": 76, "unit": "%"}, {"measurement": "ΔE/min", "setting": "glucose dehydrogenase [2]; [24]", "value": 20.3}, {"measurement": "% inh.", "setting": "glucose dehydrogenase [2]; [25]", "value": 75, "unit": "%"}, {"measurement": "ΔE/min", "setting": "glucose dehydrogenase [2]; [25]", "value": 26.7}]}, {"molecule": "O=c1[nH]c(=O)c2[nH]cnc2[nH]1", "note": "[Xanthine, xanthine]", "values": [{"measurement": "Average inhibition in %", "setting": "uricase [3]; Xanthine 20 micromoles", "value": 34, "unit": "%"}, {"measurement": "Average inhibition in %", "setting": "uricase [3]; Xanthine 40 micromoles", "value": 60, "unit": "%"}, {"measurement": "Average inhibition in %", "setting": "uricase [3]; Xanthine 80 micromoles", "value": 76, "unit": "%"}, {"measurement": "% inh.", "setting": "uricase [4]; [26]", "value": 49, "unit": "%"}, {"measurement": "ΔE/min", "setting": "uricase [4]; [26]", "value": 14}, {"measurement": "% inh.", "setting": "uricase [4]; [27]", "value": 25, "unit": "%"}, {"measurement": "ΔE/min", "setting": "uricase [4]; [27]", "value": 66}, {"measurement": "% inh.", "setting": "uricase [4]; [28]", "value": 26, "unit": "%"}, {"measurement": "ΔE/min", "setting": "uricase [4]; [28]", "value": 127}]}, {"molecule": "O=c1[nH]c(=O)c2[nH]c(=O)[nH]c2[nH]1", "note": "[uric acid]", "values": [{"measurement": "Km", "setting": "[7]", "value": 17, "unit": "µM"}]}]}
